Measurements published in patent publication US12031150B2, “Methods, compositions and kits for increasing genome editing efficiency” (Vertex Pharmaceuticals Incorporated, priority 2016, dated 2024).
Where “and” joins values, the source holds several entries; their conditions need not be identical. Equal entries are not always repeated. Entries after “also recorded” stand apart in the source; their conditions may differ.

Assays:
[1] = system: HDR repair pathway in the HEK293-EGIP cell line; test: Traffic light reporter (TLR) assay, HDR efficiency by FACS (GFP positive cells); assay type: cell-based, human; conditions: for FACS Analysis - Percent HDR enhancement (gRNA-Cas9 + donor), Mean / FACS Analysis - Percent HDR enhancement (gRNA-Cas9 + donor), single replicate: 2.5 uM compound, HEK293-EGIP; for FACS Analysis - Percent HDR enhancement (gRNA-Cas9 + donor), Mean: mean of three technical replicates; for FACS Analysis - Percent HDR enhancement (gRNA-Cas9 + donor), single replicate: technical replicates 1-3 of one experiment; for fold increase in the amount of CRISPR-genome edited cells (HDR enhancement): compared to transfection in the absence of compound, Table 1, FIG. 2C; for GFP positive cells after transfection of donor repair template and gRNA-Cas9 (qualitative): FIG. 2A FACS dot plots
Excerpt: Traffic light reporter (TLR) assay: The HEK293-EGIP (Enhanced Green Fluorescent inhibited Protein) stable cell line was purchased from System Biosciences (SBI). The HEK293-EGIP cell line harbors a disrupted GPP coding sequence with a stop codon and a 53-bp genomic fragment from the AAVS1 locus. Cells were maintained in DMEM (Life Technologies, cat. no. 10313-039) with high glucose (Life Technologies, cat. no. 10313-039) supplemented with 10% heat-inactivated FBS (Fetal Bovine Serum, Expression Systems Inc.), Glutamax and Penicillin+Streptomycin and cultured at 37° C. and 5% CO2.
Cell transfection and NHEJ inhibitor treatment: The HEK293-EGIP stable cells were transfected with the two-in-one gRNA/CRISPR-Cas9 dual plasmid vector, plasmid repair donor (both plasmids from System Biosciences). Transfection was carried out using the Amaxa nucleofector system (Lonza) following manufacturer's protocol. After 16 hours, cells were treated with Compound 1 and Scr7 (Excess Bioscience; no. M60082-2s) at various concentrations, including 1 μM, 2.5 μM, 5 μM and 10 μM of compound. The structure of Scr7 is shown as follows:
Cell Sorting and Flow Cytometry: For flow cytometry analysis, HEK293 cells were trypsinized and resuspended in PBS/1% BSA FACS buffer and analyzed with a Fortessa flow cytometer (Becton Dickinson). A portion of cells were centrifuged and used for the isolation of genomic DNA.
Assays were performed to ascertain HDR efficiency in HEK293-EGIP cells. To this end, a bicistronic construct was used that targets the human AAVS1 locus (FIG. 1A). The bicistronic vector system co-expresses human codon optimized Cas9 driven by the EF1 promoter as well as custom guide RNA (gRNA) consisting of a chimeric crRNA-tracrRNA transcript driven by the Hl promoter. The hspCas9 contains two nuclear localization signals (NLS) at the N-terminus and C-terminus to ensure efficient import of the hspCas9 protein into the nucleus. The hspCas9 open reading frame (ORF) is followed by a regulatory element called WPRE (Woodchuck virus post-transcriptional regulatory element) to boost gene expression and stabilize the mRNA transcript.
The engineered human cell line, EGIP HEK293 was used to monitor HDR efficiency using the bicistronic construct described above and in FIG. 1A. The EGIP HEK293 reporter cell line was purchased from SBI. The HEK293-EGIP cell line harbors a disrupted GFP coding sequence with a stop codon and a 53-bp genomic fragment from the AAVS1 locus. The stable line was generated by lentiviral infection of 293T cells with an EF1alpha promoter to drive the expression of eGFP followed by puromycin selection. The eGFP sequence was modified to insert a 56 nucleotide insert (uppercase) from the human AAVS1 safe harbor site. This sequence contains a stop codon (TAA in red) after amino acid T109 in the eGFP translated sequence. The guide sequences targeted are in bold letters. Upon transfection with the guide and donor, the AAVS1 site within the broken eGFP was cut and the donor construct provided a homologous sequence to repair the eGFP, by removing the stop codon and the AAVS1 insert. Edited cells which had undergone HDR donor repair will generate GFP positive cells. Accordingly, co-transfecting Cas9, gRNA targeting AAVS1 and a AAVS1/EGFP rescue donor restored the sequence by HDR to give GFP+ cells.
The population of GFP positive cells was directly proportional with the efficiency of the homology directed repair (FIG. 1B).
For these assays, two-in-one Cas9-sgRNAs and eGFP donor template vectors were introduced into the HEK293 EGIP cells by electroporation using the Amaxa nucleofector (Lonza) to drive the synthesis of Cas9-sgRNAs and the eGFP donor template. Compounds were added 16 h post transfection followed by media change 48 hours later. Cells were then allowed to propagate for an additional 72 hours before FACS analysis. […]

[2] = system: HDR efficiency in HEK-293 EGIP cells; test: PCR genotyping and gel densitometry quantification of HDR efficiency; assay type: cell-based, human; conditions: HEK293-EGIP cells nucleofected with donor template and Cas9-sgRNA; for HDR Editing Efficiency, replicate 1 hdr 1 / HDR Editing Efficiency, replicate 2 hdr 2 / HDR Editing Efficiency, replicate 3 hdr 3 / HDR Editing Efficiency, replicate 4 hdr 4: PCR band densitometry; for HDR Editing Efficiency, Average: average of replicates 1-4
Excerpt: Genomic DNA isolation, PCR Genotyping, and Gel Quantification: Specially designed PCR primer pairs provided another means to assess HDR-mediated genome editing to obtain functional eGFP positive cells. The genotyping PCR primer pair is shown below, corresponding to SEQ ID NOs: 6 and 7. A 219 bp PCR product corresponds to unmodified cells and a 163 bp nucleotide corresponds to modification through HDR. Intensity of these bands on a >2.5% gel allows for estimation of HDR by densitometry using a Bio-Imager. The technique allows for the relative ranking of improvement of HDR by inhibitors. Intensities measured for each lane were normalized by calculating the ratios of PCR bands corresponding to ‘insertions’ divided by ‘total’ (inserted and unmodified). The fold-change was calculated by comparing the ratio of insertions with compound over that without compound.
Another series of experiments compared increase in HDR efficiency following contact with either Scr7 or Compound 1, a DNAPK inhibitor. For these experiments, HEK293-EGIP cells were nucleofected with donor template only or donor template and Cas9-sgRNA. To test the ability of Scr7 and Compound 1 to enhance HDR editing, cells that had been nucleofected with either donor template alone, or donor template and Cas9-sgRNA were administered either Scr7 or Compound 1.
HDR recombination status was ascertained by traditional “end-point” PCR primer genotyping and quantitation based on agarose band intensities. The primers produced distinct amplicons: a 219 bp nucleotide band corresponded to unmodified cells and a 163 bp nucleotide product for HDR event. Intensity of these bands on a >2.5% gel allows for estimation of HDR by densitometry using a Bio-Imager. The technique allows for the relative ranking of conditions for improvement of HDR by inhibitors of NHEJ. The genotyping PCR primer pairs for these assays is shown below.

[3] = system: Serpin A1 gene in Huh7 hepato cellular carcinoma cells; test: SerpinA1 gene editing assay (KpnI site introduction, PCR and Kpn digest); assay type: cell-based; conditions: Huh7 cells nucleofected with gRNA, Cas9 protein, donor repair template; 2.5 pM Compound 1 for three days; vs DMSO; FIG. 5
Protocol: Assays were performed to ascertain the ability of a DNAPK inhibitor to allow for the editing of a target gene. For these assays, the editing of the Serpin A1 gene from M to Z form was assessed. To this end, Huh7 hepato cellular carcinoma cells were nucleofected with gRNA and Cas9 protein, with or without a donor repair template in which a KpnI site was introduced. The nucleofected cells were then cultured in the presence of DMSO or 2.5 pM Compound 1 for three days, following which, the genomic DNA was amplified and assessed for the introduction of the Kpn site.
The assay works as follows: when the SerpinA1 gene is edited, Kpn endonuclease is able to digest the gene fragment, resulting in the appearance of a digested band on a gel only when the SerpinA1 gene is edited. Conversely, when the SerpinA1 is not edited, the Kpn endonuclease is not able cut the gene fragment, and thus there will not be an appearance of a new, digested band on a gel.

[4] = system: HDR repair pathway in the HEK293-EGIP cell line; test: Traffic light reporter (TLR) assay, HDR efficiency by FACS (GFP positive cells); assay type: cell-based, human; conditions: for increase in the amount of CRISPR-genome edited HEK-EGIP cells: 2.5 μM, 24 hours, in comparison to the gRNA-Cas9 and donor template condition only, FIG. 2A; for GFP positive cells: flow cytometry 10 days post transfection, 10 μM, FIG. 4

| SMILES | FACS Analysis - Percent HDR enhancement (gRNA-Cas9 + donor), Mean [1] [%] | FACS Analysis - Percent HDR enhancement (gRNA-Cas9 + donor), single replicate [1] | fold increase in the amount of CRISPR-genome edited cells (HDR enhancement) ([1]; 2.5 μM) [fold] | fold better HDR enhancement compared to transfection with Scr7 ([1]; 2.5 μM, two separate experiments in triplicates, FIGS. 2B and 2C) [fold] | GFP positive cells after transfection of donor repair template and gRNA-Cas9 (qualitative) [1] | HDR Editing Efficiency, replicate 1 hdr 1 [2] | HDR Editing Efficiency, replicate 2 hdr 2 [2] | HDR Editing Efficiency, replicate 3 hdr 3 [2] | HDR Editing Efficiency, replicate 4 hdr 4 [2] | HDR Editing Efficiency, Average [2] | gene editing of the SerpinA1 gene (introduction of Kpn site, digested band on gel) [3] | increase in the amount of CRISPR-genome edited HEK-EGIP cells [4] | fold increase in HDR enhancement compared to SCR7 ([1]; 10 μM Compound 3, experiments in triplicates, compared to transfection in the presence of SCR7) | GFP positive cells [4] |
| --- | --- | --- | --- | --- | --- | --- | --- | --- | --- | --- | --- | --- | --- | --- |
| CNC(=O)c1ccnc2c([C@H](C)CNc3cc(-c4cnc(C)nc4)ncn3)cccc12 [Compound 1, (5)-N-methyl-8-(1-((2′-methyl-[4,5′-bipyrimidin]-6-yl)amino)propan-2-yl)quinoline-4-carboxamide] | 0.64 | 0.44% and 6.82% and 0.65% | ~4.5 | 2 | increase in GFP positive cells | 8.4 and 4.3 and 4.9 | 29 and 27.4 (2×) | 27.5 and 58.3 and 29.8 | 27.6 and 40 and 25.1 | 23.125 and 32.5 and 21.8 | allowed for gene editing in comparison to the DMSO condition; also recorded: resulted in gene editing of the SerpinA1 gene | approximately 83% |  |  |
| CNC(=O)c1ccnc2c([C@H](C)CNc3cc(-c4ccc(C)nc4)ncn3)cccc12 [Compound 3] |  |  |  |  |  |  |  |  |  |  |  |  | about 8 fold | 4% |
| Oc1nc(S)nc(/N=C/c2ccccc2)c1/N=C/c1ccccc1 [Scr7, reference compound] | 0.32 | 0.16% and 0.62% and 0.19% | ~2.3 |  | increase in GFP positive cells | 1.3 and 14.1 and 5.8 | 18.2 and 22.7 and 21.8 | 16.6 and 20.2 and 21.3 | 16.4 and 28.1 and 23 | 13.125 and 21.275 and 17.975 |  | approximately 30% |  | about 0.5% |
